Results reported in BindingDB's records for patent US11583538 (Venenum Biodesign, 2023).

These compounds were tested against T1, Three-prime repair exonuclease 1 (Homo sapiens, UniProt Q9NSU2) (assay: TREX1 Exonuclease Assay).
T1 sequence (Q9NSU2 whole entry): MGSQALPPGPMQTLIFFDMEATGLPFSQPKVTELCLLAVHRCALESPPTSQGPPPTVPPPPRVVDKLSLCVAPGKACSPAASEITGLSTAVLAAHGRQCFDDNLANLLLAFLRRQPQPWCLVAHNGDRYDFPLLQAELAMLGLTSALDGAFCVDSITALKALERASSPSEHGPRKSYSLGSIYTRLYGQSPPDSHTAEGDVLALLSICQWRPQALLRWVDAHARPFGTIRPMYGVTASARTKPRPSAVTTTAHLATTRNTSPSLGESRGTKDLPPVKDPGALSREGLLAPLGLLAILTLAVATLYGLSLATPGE
Method: For human TREX1, the nucleotide sequence of the gene construct was codon optimized for expression in the bacterial host. The sequence was incorporated into the pMAL-c5e vector (NEB) downstream of a solubility-promoting MBP (maltose binding protein) fusion partner. The fusion protein product was expressed in E. coli strain BL21 (DE3) (Millipore) and purified in a series of chromatographic steps. Initial steps were conducted using a dextrin sepharose affinity column followed by a Q-sepharose ion exchange column (both GE Healthcare). After the second column the MBP partner was removed by incubation with enterokinase (NEB). Further purification was carried out with the second application of a Q-sepharose column followed by a Superdex 75 (GE Healthcare) size exclusion column. Finally, a heparin sepharose column (GE Healthcare) was applied to remove contaminating nucleotides. […] Next, 4 μL of human TREX1 (0.5 nM), or murine TREX1 (1 nM), diluted in assay buffer (20 mM Tris pH 7.5, 5 mM MgCl, 100 μg/mL BSA, 0.002% Triton X-100, 2 mM DTT), was added to the assay plate. After incubating for 30 minutes, 4 μL of labeled DNA oligonucleotide (500 nM) in assay buffer was added to initiate TREX1 exonuclease activity. The reaction was allowed to proceed for 45 minutes at room temperature prior to the addition of 4 μL of 150 mM EDTA to halt TREX1 activity.

With `N[C@@H]1C[C@H]2C(=O)N([C@@H](CCC(=O)O)C(=O)NCc3ccc(Cl)c(Cl)c3)CCC(CCc3ccccc3)N2C1` (stereo not given in full) [US11583538, Example 29] as the compound, how does the IC50 read?
Its IC50 is less than 1000 nM.

For `N[C@@H]1C[C@H]2C(=O)N([C@H](CCC(=O)O)C(=O)NCc3ccc(Cl)c(Cl)c3)CCC(COc3cccc(F)c3)N2C1` (stereo not given in full) [US11583538, Example 77], which IC50 is on record?
The IC50 was less than 1000 nM.

Which IC50 does the source give for `N[C@@H]1C[C@H]2C(=O)N([C@H](CCC(=O)O)C(=O)NCc3ccc(Cl)c(Cl)c3)CCC(COc3ccccc3F)N2C1` (stereo not given in full) [US11583538, Example 79] here?
Its IC50 is less than 1000 nM.

Which IC50 does the source give for `CC(C)C[C@H](CNS(=O)(=O)c1ccc(Cl)c(Cl)c1)N1CCC(CCc2ccccc2)N2C[C@H](N)C[C@H]2C1=O` (stereo not given in full) [US11583538, Example 81] here?
Its IC50 is less than 1000 nM.

`N[C@@H]1C[C@H]2C(=O)N([C@@H]3CCCN(S(=O)(=O)c4ccc(Cl)c(Cl)c4)C3)CCC(CCc3ccccc3)N2C1` (stereo not given in full) [US11583538, Example 83] was tested. Which IC50 did it give?
The IC50 was less than 1000 nM.

With `COC(=O)CC[C@H](C(=O)NCc1ccc(Cl)c(Cl)c1)N1CCC(COc2cccc(F)c2)N2C[C@H](N)C[C@H]2C1=O` (stereo not given in full) [US11583538, Example 90] as the compound, how does the IC50 read?
The IC50 was less than 1000 nM.

How did the IC50 turn out when `COC(=O)CC[C@H](C(=O)NCc1ccc(Cl)c(Cl)c1)N1CCC(COc2ccc(F)cc2)N2C[C@H](N)C[C@H]2C1=O` (stereo not given in full) [US11583538, Example 91] was run?
Its IC50 is less than 1000 nM.

Which IC50 does the source give for `CCOC(=O)CC[C@H](C(=O)NCc1ccc(Cl)c(Cl)c1F)N1CCC(CCc2ccccc2)N2C[C@H](N)C[C@H]2C1=O` (stereo not given in full) [US11583538, Example 93] here?
Its IC50 is less than 1000 nM.

How did the IC50 turn out when `CCOC(=O)CC[C@H](C(=O)NCc1ccc(Cl)c(Cl)n1)N1CCC(CCc2ccccc2)N2C[C@H](N)C[C@H]2C1=O` (stereo not given in full) [US11583538, Example 95] was run?
The IC50 was less than 1000 nM.

How did the IC50 turn out when `N[C@@H]1C[C@H]2C(=O)N([C@H](CCC(=O)NO)C(=O)NCc3ccc(Cl)c(Cl)c3)CCC(COc3cccc(F)c3)N2C1` (stereo not given in full) [US11583538, Example 114] was run?
Its IC50 is less than 1000 nM.

For `N[C@@H]1C[C@H]2C(=O)N([C@H](CSc3ccccc3O)C(=O)NCc3ccc(Cl)c(Cl)c3)CCC(CCc3ccccc3)N2C1` (stereo not given in full) [US11583538, Example 123], which IC50 is on record?
Its IC50 is less than 1000 nM.

With `N[C@@H]1C[C@H]2C(=O)N([C@H](CS(=O)(=O)c3ccccc3O)C(=O)NCc3ccc(Cl)c(Cl)c3)CCC(CCc3ccccc3)N2C1` (stereo not given in full) [US11583538, Example 124] as the compound, how does the IC50 read?
Its IC50 is less than 1000 nM.

How did the IC50 turn out when `CC(C)C[C@H](C(=O)NCc1ccc(Cl)c(Cl)c1)N1CCC(C[S+]([O-])c2ccccc2)N2C[C@H](N)C[C@H]2C1=O` (stereo not given in full) [US11583538, Example 125A] was run?
Its IC50 is less than 1000 nM.

For `N[C@@H]1C[C@H]2C(=O)N([C@H](CCNC(=O)C3CC3)C(=O)NCc3ccc(Cl)c(Cl)c3)CCC(CCc3ccccc3)N2C1` (stereo not given in full) [US11583538, Example 130], which IC50 is on record?
Its IC50 is less than 1000 nM.

With `N[C@@H]1C[C@H]2C(=O)N([C@H](CCC(=O)O)C(=O)NCc3cc(Cl)c(Cl)c[n+]3[O-])CCC(CCc3ccccc3)N2C1` (stereo not given in full) [US11583538, Example 134] as the compound, how does the IC50 read?
The IC50 was less than 1000 nM.
